# Data from article PMC6934184, “Selective DNA-PKcs inhibition extends the therapeutic index of localized radiotherapy and chemotherapy” (The Journal of Clinical Investigation, 2019).
# Target: T1, LRRK2 G2019S (Homo sapiens, UniProt Q5S007, G2019S)
# T1 construct: purchased Thermo Fisher Scientific (Life Technologies) SelectScreen
# Test: SelectScreen Adapta
# Assay type: biochemical
# Method: The in vitro kinase selectivity of NU5455 was determined using the SelectScreen Broad Assay Panel (Thermo Fisher Scientific) involving activity and binding assays (Supplemental Table 1). […] Class IA PI3Ks were measured using the p85α subunit.
# Kinase [ATP] % Assay Kinase [ATP] % Assay Kinase [ATP] % Assay Kinase [ATP] % Assay […]
# SGK (SGK1) Km app 8.5 Z MAP4K2 (GCK) Km app 2.7 Z TLK2 n/a -0.3 L STK38 (NDR) n/a -5.9 L
# MERTK (cMER) Km app 8.3 Z CDK2/cyclin A Km app 2.7 Z TGFBR1 (ALK5) n/a -0.4 L MATK (HYL) Km app -6.3 Z
# FYN Km app 8.3 Z EPHA1 Km app 2.7 Z CLK3 Km app -0.5 Z ABL1 E255K Km app -6.6 Z
# TEC n/a 8.1 L CDK2/cyclin E1 n/a 2.7 L MAP3K14 (NIK) n/a -0.5 L STK17A (DRAK1) n/a -6.6 L
# KIT V654A n/a 8.1 L TESK2 n/a 2.7 L AKT3 (PKB gamma) Km app -0.5 Z JAK2 JH1 JH2 Km app -6.7 Z
# ROS1 Km app 8.0 Z SPHK1 Km app 2.7 A MAP3K9 (MLK1) Km app -0.5 Z PRKACB (PRKAC beta) n/a -6.8 L
# FGFR3 K650E Km app 7.9 Z AMPK A2/B1/G1 Km app 2.6 Z IKBKB (IKK beta) Km app -0.6 Z PDGFRA (PDGFR alpha) Km app -6.8 Z
# RAF1 (cRAF) Y340D Y341D 100 7.9 Z DYRK3 Km app 2.6 Z CAMK2A (CaMKII alpha) Km app -0.6 Z NEK9 Km app -7.2 Z
# PI4KA (PI4K alpha) 10 7.8 A CSNK1D (CK1 delta) Km app 2.6 Z PRKCB1 (PKC beta I) Km app -0.7 Z PDK1 Km app -7.3 Z
# HIPK2 Km app 7.8 Z ACVR2A n/a 2.5 L TTK n/a -0.7 L RPS6KB1 (p70S6K) Km app -7.8 Z
# CSK Km app 7.6 Z DDR2 T654M n/a 2.5 L ZAK n/a -0.7 L STK38L (NDR2) n/a -8.4 L
# PRKCG (PKC gamma) Km app 7.6 Z JAK2 Km app 2.5 Z IKBKE (IKK epsilon) Km app -0.7 Z ABL1 G250E Km app -8.5 Z
# SRMS (Srm) Km app 7.5 Z HIPK3 (YAK1) Km app 2.5 Z CAMK2G (CaMKII gamma) n/a -0.8 L PRKD1 (PKC mu) Km app -8.5 Z
# YES1 Km app 7.4 Z AMPK (A1/B1/G2) n/a 2.4 L TLK1 n/a -0.8 L CDK5/p35 Km app -8.6 Z
# RPS6KA5 (MSK1) Km app 7.4 Z MYO3B (MYO3 beta) n/a 2.3 L MAPK12 (p38 gamma) Km app -0.8 Z PDGFRA T674I Km app -8.9 Z
# TNIK n/a 7.3 L PASK Km app 2.3 Z PRKCI (PKC iota) Km app -0.8 Z BLK Km app -8.9 Z
# FER Km app 7.1 Z ACVRL1 (ALK1) n/a 2.3 L PKN2 (PRK2) n/a -1.0 L PRKD2 (PKD2) Km app -9.1 Z
# CDK16 (PCTK1)/cyclin Y n/a 7.0 L EGFR (ErbB1) L861Q Km app 2.2 Z PIM1 Km app -1.0 Z CSNK1G2 (CK1 gamma 2) Km app -9.3 Z
# MST4 Km app 6.9 Z RPS6KA3 (RSK2) Km app 2.1 Z CDK5/p25 Km app -1.1 Z ROCK1 Km app -9.5 Z
# FLT1 (VEGFR1) Km app 6.5 Z STK23 (MSSK1) Km app 2.0 Z SRPK1 Km app -1.1 Z PRKCB2 (PKC beta II) Km app -9.6 Z
# DYRK1A Km app 6.4 Z ALK R1275Q n/a 2.0 L BRSK1 (SAD1) Km app -1.1 Z CSNK1G1 (CK1 gamma 1) Km app -9.9 Z
# PRKCD (PKC delta) Km app 6.2 Z TBK1 Km app 2.0 Z MAP3K3 (MEKK3) n/a -1.1 L ABL2 (Arg) Km app -10.3 Z
# EGFR (ErbB1) Km app 6.0 Z ACVR1B (ALK4) Km app 2.0 Z AMPK A1/B1/G1 Km app -1.2 Z STK3 (MST2) Km app -10.3 Z
# CDC7/DBF4 n/a 6.0 L CDK3/cyclin E1 n/a 1.9 L WNK3 n/a -1.2 L CAMK4 (CaMKIV) Km app -10.4 Z
# JAK3 Km app 6.0 Z KDR (VEGFR2) Km app 1.8 Z LATS1 n/a -1.3 L MKNK1 (MNK1) Km app -10.7 Z
# MAPK13 (p38 delta) Km app 5.8 Z ULK1 n/a 1.8 L DMPK n/a -1.5 L FLT3 ITD n/a -11.6 L
# FRAP1 (mTOR) Km app 5.7 Z AURKB (Aurora B) Km app 1.7 Z CDK2/cyclin A1 n/a -1.6 L CHEK2 (CHK2) Km app -11.7 Z
# KIT Y823D n/a 5.6 L LRRK2 Km app 1.7 A LIMK1 n/a -1.7 L LTK (TYK1) Km app -13.1 Z
# ITK Km app 5.5 Z MAP2K3 (MEK3) n/a 1.6 L DYRK1B Km app -1.8 Z JAK2 JH1 JH2 V617F Km app -13.8 Z
# KIT Km app 5.3 Z DAPK1 Km app 1.6 A DDR1 n/a -1.8 L EPHA8 Km app -13.8 Z
# CDK7/cyclin H/MNAT1 Km app 5.3 A EPHA6 n/a 1.6 L BTK Km app -2.0 Z EGFR (ErbB1) T790M L858R Km app -14.1 Z
# RET Km app 5.2 Z MAP4K1 (HPK1) n/a 1.6 L ADRBK1 (GRK2) Km app -2.0 Z MET M1250T Km app -14.5 Z […]
# T1 sequence (Q5S007 whole entry G2019S): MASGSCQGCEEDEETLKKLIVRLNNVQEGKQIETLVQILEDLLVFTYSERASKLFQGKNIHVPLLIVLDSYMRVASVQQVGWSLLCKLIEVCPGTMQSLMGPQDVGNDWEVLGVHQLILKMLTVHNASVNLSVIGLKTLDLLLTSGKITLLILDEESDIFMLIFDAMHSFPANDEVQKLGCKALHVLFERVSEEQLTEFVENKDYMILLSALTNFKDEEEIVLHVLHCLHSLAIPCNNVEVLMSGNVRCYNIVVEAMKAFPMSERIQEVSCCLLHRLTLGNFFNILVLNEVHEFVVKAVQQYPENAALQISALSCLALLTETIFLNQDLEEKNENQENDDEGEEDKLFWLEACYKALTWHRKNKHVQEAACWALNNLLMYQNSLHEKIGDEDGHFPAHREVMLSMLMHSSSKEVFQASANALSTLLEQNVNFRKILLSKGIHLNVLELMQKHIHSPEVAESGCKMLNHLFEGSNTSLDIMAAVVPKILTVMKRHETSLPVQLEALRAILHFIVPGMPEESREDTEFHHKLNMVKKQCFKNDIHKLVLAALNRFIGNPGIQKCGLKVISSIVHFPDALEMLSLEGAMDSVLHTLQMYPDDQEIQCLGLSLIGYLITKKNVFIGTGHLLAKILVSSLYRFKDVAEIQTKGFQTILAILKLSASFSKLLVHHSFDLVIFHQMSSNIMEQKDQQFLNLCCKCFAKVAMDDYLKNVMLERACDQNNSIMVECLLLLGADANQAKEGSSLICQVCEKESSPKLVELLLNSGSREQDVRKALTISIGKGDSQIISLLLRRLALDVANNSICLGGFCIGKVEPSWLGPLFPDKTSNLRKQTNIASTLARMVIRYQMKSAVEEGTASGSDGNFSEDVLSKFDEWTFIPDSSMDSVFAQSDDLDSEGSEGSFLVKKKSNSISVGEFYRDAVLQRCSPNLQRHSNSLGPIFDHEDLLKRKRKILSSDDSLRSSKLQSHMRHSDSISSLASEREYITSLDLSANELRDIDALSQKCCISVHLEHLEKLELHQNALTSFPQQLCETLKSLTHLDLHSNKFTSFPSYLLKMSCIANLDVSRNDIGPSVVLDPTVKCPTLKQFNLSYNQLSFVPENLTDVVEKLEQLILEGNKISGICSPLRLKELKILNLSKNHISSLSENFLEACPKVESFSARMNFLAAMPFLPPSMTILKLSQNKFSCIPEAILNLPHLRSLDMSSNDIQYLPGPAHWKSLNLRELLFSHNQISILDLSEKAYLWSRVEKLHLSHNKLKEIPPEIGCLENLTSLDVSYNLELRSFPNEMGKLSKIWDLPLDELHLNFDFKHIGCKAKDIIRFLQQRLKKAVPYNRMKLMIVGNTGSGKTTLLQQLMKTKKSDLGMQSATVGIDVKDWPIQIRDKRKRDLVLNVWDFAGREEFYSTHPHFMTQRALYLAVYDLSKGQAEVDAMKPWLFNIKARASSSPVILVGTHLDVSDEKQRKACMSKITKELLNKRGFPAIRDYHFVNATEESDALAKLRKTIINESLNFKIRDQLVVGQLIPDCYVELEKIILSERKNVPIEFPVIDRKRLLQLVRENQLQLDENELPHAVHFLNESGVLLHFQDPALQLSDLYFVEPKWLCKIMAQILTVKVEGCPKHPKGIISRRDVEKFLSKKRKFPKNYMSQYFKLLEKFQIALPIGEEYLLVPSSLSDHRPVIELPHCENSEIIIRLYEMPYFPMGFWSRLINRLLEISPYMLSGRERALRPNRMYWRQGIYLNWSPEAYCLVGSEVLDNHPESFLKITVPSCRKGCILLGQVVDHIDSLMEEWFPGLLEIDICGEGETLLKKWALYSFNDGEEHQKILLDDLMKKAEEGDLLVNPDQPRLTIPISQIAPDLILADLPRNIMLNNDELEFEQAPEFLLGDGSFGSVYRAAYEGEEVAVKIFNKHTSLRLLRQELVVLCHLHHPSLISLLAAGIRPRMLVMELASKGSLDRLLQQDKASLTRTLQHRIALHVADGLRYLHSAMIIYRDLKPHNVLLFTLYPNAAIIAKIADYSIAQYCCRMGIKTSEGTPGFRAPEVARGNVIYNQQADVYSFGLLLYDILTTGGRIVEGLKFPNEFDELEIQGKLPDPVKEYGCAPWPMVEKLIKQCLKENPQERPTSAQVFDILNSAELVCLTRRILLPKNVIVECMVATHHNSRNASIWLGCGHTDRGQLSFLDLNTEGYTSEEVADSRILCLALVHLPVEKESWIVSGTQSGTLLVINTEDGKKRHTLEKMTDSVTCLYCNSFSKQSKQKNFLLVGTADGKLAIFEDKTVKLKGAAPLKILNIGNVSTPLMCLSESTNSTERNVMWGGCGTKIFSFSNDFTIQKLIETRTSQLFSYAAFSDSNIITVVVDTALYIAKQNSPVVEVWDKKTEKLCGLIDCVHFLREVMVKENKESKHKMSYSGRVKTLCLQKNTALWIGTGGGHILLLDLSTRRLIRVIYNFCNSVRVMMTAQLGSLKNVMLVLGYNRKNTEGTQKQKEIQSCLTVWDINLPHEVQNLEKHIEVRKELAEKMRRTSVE
smiles,measurement,value
CN(C(=O)CN1CCOCC1)c1ccc2sc3c(-c4cccc5c(=O)cc(N6CC7CCC(C6)O7)oc45)cccc3c2c1 [NU5455],inhibition at 1 µM,3%
